Laboratory results taken from patent publication US9957271B2, “Substituted bicyclic aza-heterocycles and analogues as sirtuin modulators” (GlaxoSmithKline, LLC, priority 2012, dated 2018).
Where two headings read alike, the source gives them in different places.

Target: T1, SIRT1 (Homo sapiens, UniProt Q96EB6)
T1 sequence (Q96EB6 1-747): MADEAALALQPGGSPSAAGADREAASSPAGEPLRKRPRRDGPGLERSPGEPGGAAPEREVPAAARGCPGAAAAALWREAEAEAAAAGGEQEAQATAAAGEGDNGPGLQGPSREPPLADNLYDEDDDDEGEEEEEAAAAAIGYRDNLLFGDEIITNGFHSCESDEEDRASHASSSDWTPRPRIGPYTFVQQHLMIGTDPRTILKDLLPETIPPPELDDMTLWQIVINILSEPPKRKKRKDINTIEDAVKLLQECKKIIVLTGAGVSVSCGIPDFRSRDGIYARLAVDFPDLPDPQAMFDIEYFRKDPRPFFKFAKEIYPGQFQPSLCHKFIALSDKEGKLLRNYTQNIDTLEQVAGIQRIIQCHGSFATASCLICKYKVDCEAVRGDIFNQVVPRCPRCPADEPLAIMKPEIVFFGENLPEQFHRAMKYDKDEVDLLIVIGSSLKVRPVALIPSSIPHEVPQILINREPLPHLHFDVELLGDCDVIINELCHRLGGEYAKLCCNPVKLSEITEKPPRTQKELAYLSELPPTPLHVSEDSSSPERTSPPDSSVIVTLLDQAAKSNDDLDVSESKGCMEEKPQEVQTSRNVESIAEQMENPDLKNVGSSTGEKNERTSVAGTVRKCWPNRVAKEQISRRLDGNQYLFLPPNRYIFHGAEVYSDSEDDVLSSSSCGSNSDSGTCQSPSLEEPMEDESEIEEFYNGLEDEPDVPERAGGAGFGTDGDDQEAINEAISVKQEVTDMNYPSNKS
Assay: TAMRA based mass spectrometry assay of SIRT1 activity
Type: biochemical
Details: for Emax: read-out: TAMRA % Fold Act
Description: Mass spectrometry based assays were used to identify modulators of SIRT1 activity. The TAMRA based assay utilized a peptide having 20 amino acid residues as follows: Ac-EE-K(biotin)-[…](Ac)NleSTEG-K(5TMR)-EE-NH2 (SEQ ID NO: 1), wherein K(Ac) is an acetylated lysine residue and Nle is a norleucine. The peptide was labeled with the fluorophore 5TMR (excitation 540 nm/emission 580 nm) at the C-terminus. The sequence of the peptide substrate was based on p53 with several modifications. In addition, the methionine residue naturally present in the sequence was replaced with the norleucine because the methionine may be susceptible to oxidation during synthesis and purification. The Trp based assay utilized a peptide having an amino acid residues as follows: Ac-R-H-K-K(Ac)-W-NH2 (SEQ ID NO: 2).
The TAMRA based mass spectrometry assay was conducted as follows: 0.5 μM peptide substrate and 120 μM βNAD^+ was incubated with 10 nM SIRT1 for 25 minutes at 25° C. in a reaction buffer (50 mM Tris-acetate pH 8, 137 mM NaCl, 2.7 mM KCl, 1 mM MgCl2, 5 mM DTT, 0.05% BSA). The SIRT1 protein was obtained by cloning the SirT1 gene into a T7-promoter containing vector, which was then transformed and expressed in BL21(DE3) bacterial cells. Test compound was added at varying concentrations to this reaction mixture and the resulting reactions were monitored. After the 25 minute incubation with SIRT1, 10 μL of 10% formic acid was added to stop the reaction. The resulting reactions were sealed and frozen for later mass spec analysis. Determination of the amount of deacetylated substrate peptide formed (or, alternatively, the amount of O-acetyl-ADP-ribose (OAADPR) generated) by the sirtuin-mediated NAD-dependent deacetylation reaction allowed for the precise measurement of relative SIRT1 activity in the presence of varying concentrations of the test compound versus control reactions lacking the test compound.
A control for inhibition of sirtuin activity was conducted by adding 1 μL of 500 mM nicotinamide as a negative control at the start of the reaction (e.g., permits determination of maximum sirtuin inhibition). A control for activation of sirtuin activity was conducted using 10 nM of sirtuin protein, with 1 μL of DMSO in place of compound, to determine the amount of deacetylation of the substrate at a given time point within the linear range of the assay. This time point was the same as that used for test compounds and, within the linear range, the endpoint represents a change in velocity.
For the above assay, SIRT1 protein was expressed and purified as follows. The SirT1 gene was cloned into a T7-promoter containing vector and transformed into BL21(DE3). The protein was expressed by induction with 1 mM IPTG as an N-terminal His-tag fusion protein at 18° C. overnight and harvested at 30,000×g. Cells were lysed with lysozyme in lysis buffer (50 mM Tris-HCl, 2 mM Tris[2-carboxyethyl]phosphine (TCEP), 10 μM ZnCl2, 200 mM NaCl) and further treated with sonication for […] for complete lysis. The protein was purified over a Ni-NTA column (Amersham) and fractions containing pure protein were pooled, concentrated and run over a sizing column (Sephadex S200 26/60 global). The peak containing soluble protein was collected and run on an Ion-exchange column (MonoQ). Gradient elution (200 mM-500 mM NaCl) yielded pure protein. This protein was concentrated and dialyzed against dialysis buffer (20 mM Tris-HCl, 2 mM TCEP) overnight. The protein was aliquoted and frozen at −80° C. until further use.

[1] = TAMRA assay, concentration giving 150% activation of SIRT1
[2] = TAMRA assay, percent maximum fold activation
[3] = concentration of test compound giving 150% activation of SIRT1, TAMRA peptide substrate
[4] = percent maximum fold activation of SIRT1, TAMRA peptide substrate
[5] = TAMRA peptide substrate, concentration giving 150% activation of SIRT1
[6] = TAMRA peptide substrate, percent maximum fold activation

Row | SMILES | TAMRA EC1.5 (μM) [1] | Emax [2] | TAMRA EC1.5 (μM) [3] | Emax [4] | further results
1 | Cc1cc(-c2ccccc2C(F)(F)F)nn2c(C(=O)Nc3ccnc(N4CC5(CCS5(=O)=O)C4)n3)cnc12 [Compound 691] | A (EC1.5<1 μM) | ≥ 350% |  |  | 
2 | Cc1ccnc(C(=O)Nc2cnn3ccc(-c4ccccc4OC(F)(F)F)nc23)c1 [Compound 714] | A (EC1.5<1 μM) | ≥ 350% |  |  | 
3 | O=C(Nc1cnn2ccc(-c3ccccc3C(F)(F)F)nc12)c1ncccc1F [Compound 747] | A (EC1.5<1 μM) | ≥ 350% |  |  | 
4 | Cc1cc(OCC(O)CO)nc(NC(=O)c2cnc3ccc(-c4ccccc4C(F)(F)F)nn23)n1 (stereo not shown) [Compound 76] |  |  | B (EC1.5 1-25 μM) | ≥ 350% | 
5 | Cc1ccc(NC(=O)c2cnc3ccc(-c4ccccc4OC(F)(F)F)nn23)nn1 [Compound 396] | A (EC1.5<1 μM) | ≥ 350% |  |  | 
6 | Cn1cc(NC(=O)c2cnc3ccc(-c4ccccc4C(F)(F)F)nn23)cn1 [Compound 153] |  |  | B (EC1.5 1-25 μM) | ≥ 350% | 
7 | Cc1ncccc1-c1ccc2ncc(C(=O)Nc3cccc(N4CCOCC4)n3)n2n1 [Compound 58] |  |  | B (EC1.5 1-25 μM) | < 350% | 
8 | O=C(Nc1cnn2ccc(-c3ccccc3OC(F)(F)F)nc12)c1ccncn1 [Compound 585] |  |  |  |  | TAMRA EC1.5 [5]: B (EC1.5 1-25 μM); Emax [6]: ≥ 350%
9 | Cc1cc2ncc(C(=O)Nc3ccnc(N4CCC4)c3)n2nc1-c1ccccc1C(F)(F)F [Compound 225] | A (EC1.5<1 μM) | ≥ 350% |  |  | 
10 | O=C(Nc1ncccc1N1CCOCC1)c1cnc2ccc(-c3ccccc3C(F)(F)F)nn12 [Compound 211] | C (EC1.5>25 μM) | < 350% |  |  | 
11 | Cc1nc2c(C)cc(-c3ccccc3C(F)(F)F)nn2c1C(=O)Nc1cccc(N2CC3(CCO3)C2)n1 [Compound 544] |  |  |  |  | TAMRA EC1.5 [5]: A (EC1.5<1 μM); Emax [6]: ≥ 350%
12 | O=C(Nc1cccc(N2CCC2)n1)c1cnc2ccc(-c3ccccc3C(F)(F)F)nn12 [Compound 49] |  |  | A (EC1.5<1 μM) | ≥ 350% | 
13 | O=C(Nc1cccnc1)c1cnc2ccc(-c3c(F)cccc3Cl)nn12 [Compound 163] |  |  | C (EC1.5>25 μM) | < 350% | 
14 | Cc1cc(C)c(NC(=O)c2cnn3ccc(-c4ccccc4OC(F)(F)F)nc23)cn1 [Compound 661] | B (EC1.5 1-25 μM) | < 350% |  |  | 
15 | Cc1cc(-c2ccccc2C(F)(F)F)nn2c(NC(=O)c3ncccn3)cnc12 [Compound 410] |  |  |  |  | TAMRA EC1.5 [5]: A (EC1.5<1 μM); Emax [6]: ≥ 350%
16 | CCOc1cc(NC(=O)c2cnn3ccc(-c4ccccc4C(F)(F)F)nc23)ccn1 [Compound 643] | A (EC1.5<1 μM) | ≥ 350% |  |  | 
17 | COc1cc(C)nc(NC(=O)c2cnc3ccc(-c4ccccc4C(F)(F)F)nn23)n1 [Compound 174] |  |  | A (EC1.5<1 μM) | ≥ 350% | 
18 | Cc1cccnc1C(=O)Nc1cnc2ccc(-c3ccccc3C(F)(F)F)nn12 [Compound 232] | A (EC1.5<1 μM) | ≥ 350% |  |  | 
19 | Cc1cc(NC(=O)c2c(C)nc3c(C)cc(-c4ccccc4C(F)(F)F)nn23)ccn1 [Compound 459] |  |  |  |  | TAMRA EC1.5 [5]: A (EC1.5<1 μM); Emax [6]: ≥ 350%

Row | SMILES | TAMRA EC1.5 (μM) [1] | Emax [2] | TAMRA EC1.5 (μM) [3] | Emax [4] | further results
20 | Cc1nc2c(C)cc(-c3ccccc3C(F)(F)F)nn2c1C(=O)Nc1cncc(OC[C@H](O)CO)n1 [Compound 468] |  |  |  |  | TAMRA EC1.5 [5]: A (EC1.5<1 μM); Emax [6]: ≥ 350%
21 | Cc1cc(C)nc(NC(=O)c2c(O)nc3ccc(-c4ccccc4C(F)(F)F)nn23)c1 [Compound 365] | B (EC1.5 1-25 μM) | < 350% |  |  | 
22 | Cc1cc(C)c(NC(=O)c2cnn3ccc(-c4ccccc4C(F)(F)F)nc23)cn1 [Compound 687] | B (EC1.5 1-25 μM) | < 350% |  |  | 
23 | CS(=O)(=O)c1ccccc1-c1ccc2ncc(C(=O)Nc3ccncc3)n2n1 [Compound 187] |  |  | C (EC1.5>25 μM) | < 350% | 
24 | N#Cc1ccccc1-c1ccc2ncc(C(=O)Nc3cccc(CN4CCOCC4)n3)n2n1 [Compound 202] | B (EC1.5 1-25 μM) | < 350% |  |  | 
25 | O=C(Nc1ccncn1)c1cnn2ccc(-c3ccccc3C(F)(F)F)nc12 [Compound 268] | A (EC1.5<1 μM) | ≥ 350% |  |  | 
26 | O=C(Nc1cccc(N2CCOCC2)n1)c1cnc2ccc(-c3cncc(C(F)F)c3)nn12 [Compound 60] |  |  | A (EC1.5<1 μM) | < 350% | 
27 | O=C(Nc1nccs1)c1cnc2ccc(-c3ccccc3OC(F)(F)F)nn12 [Compound 13] |  |  | A (EC1.5<1 μM) | ≥ 350% | 
28 | O=C(Nc1cccc(CN2CCOCC2)n1)c1cnc2ccc(-c3cccc(F)c3Cl)nn12 [Compound 180] |  |  | B (EC1.5 1-25 μM) | ≥ 350% | 
29 | Cc1nccc(C(=O)Nc2cnn3ccc(-c4ccccc4OC(F)(F)F)nc23)n1 [Compound 726] | A (EC1.5<1 μM) | ≥ 350% |  |  | 
30 | CC1(COc2cccc(NC(=O)c3cnc4ccc(-c5ccccc5OC(F)(F)F)nn34)n2)COC1 [Compound 400] |  |  |  |  | TAMRA EC1.5 [5]: A (EC1.5<1 μM); Emax [6]: ≥ 350%
31 | Cc1cnc(NC(=O)c2c(C)nn3ccc(-c4ccccc4C(F)(F)F)nc23)c(C)n1 [Compound 753] | B (EC1.5 1-25 μM) | ≥ 350% |  |  | 
32 | COCc1nccc(NC(=O)c2c(C)nc3c(C)cc(-c4ccccc4C(F)(F)F)nn23)n1 [Compound 733] | A (EC1.5<1 μM) | ≥ 350% |  |  | 
33 | O=C(Nc1nccs1)c1cnc2ccc(-c3cccc(C(F)(F)F)c3)nn12 [Compound 3] |  |  | B (EC1.5 1-25 μM) | < 350% | 
34 | N#Cc1ccccc1-c1ccc2ncc(NC(=O)c3ccccn3)n2n1 [Compound 328] | A (EC1.5<1 μM) | ≥ 350% |  |  | 
35 | O=C(Nc1ccnc(N2CCCC2)c1)c1cnc2ccc(-c3ccccc3C(F)F)nn12 [Compound 40] |  |  | A (EC1.5<1 μM) | ≥ 350% | 
36 | Cc1scnc1C(=O)Nc1cnc2ccc(-c3ccccc3C(F)(F)F)nn12 [Compound 271] | A (EC1.5<1 μM) | ≥ 350% |  |  | 
37 | Cc1cc2ncc(NC(=O)c3cscn3)n2nc1-c1ccccc1C(F)(F)F [Compound 434] |  |  |  |  | TAMRA EC1.5 [5]: A (EC1.5<1 μM); Emax [6]: ≥ 350%
38 | Cc1cnc(C(=O)Nc2cnc3ccc(-c4ccccc4C(F)(F)F)nn23)cn1 [Compound 219, 5-methyl-N-(6-(2-(trifluoromethyl)phenyl)imidazo[1,2-b]pyridazin-3-yl)pyrazine-2-carboxamide] | A (EC1.5<1 μM) | ≥ 350% |  |  | 
